In PMC12368495, “Pharmacokinetic/pharmacodynamic parameters of teicoplanin for predicting clinical outcome of glycopeptide-susceptible Enterococcus faecium bacteraemia” (JAC-Antimicrobial Resistance, 2025):

Assays:
[1] = Teicoplanin trough concentration and Bayesian estimation of AUC24/fAUC24 in patients; assay type: in vivo, human
Experimental: The primary PK/PD parameter for this study was the ratio of the estimated 24-h free-drug area under the curve to the MIC (fAUC24/MICEtest). The estimation of fAUC24 was based on total Cmin measured during the maintenance phase of therapy (at least 3 days after treatment initiation). Our institutional dosing protocol recommends a loading dose of 8–10 mg/kg administered three times approximately every 12 h within the first 48 h for patients with normal renal function, followed by a maintenance dose of 6 mg/kg once daily from Day 3. This loading regimen is intended to rapidly achieve therapeutic concentrations, allowing Cmin values measured during the maintenance phase to serve as a reliable surrogate for drug exposure. Teicoplanin doses were routinely proposed by a pharmacist using therapeutic drug monitoring (TDM) with a target Cmin for teicoplanin set at 15–30 mg/L in line with guideline recommendations,[22] though actual dosing was determined at the discretion of the attending physician.
The estimation of fAUC24 involved a multi-step process. First, the total drug AUC over a 24-h interval during the maintenance phase (AUC24) was calculated for each patient. This was based on individual total clearance (CLtotal) estimated from the observed Cmin through Bayesian analysis. This analysis employed a previously developed population PK (PopPK) model for Japanese patients constructed by Nakayama et al.[23] This PopPK model was based on data from 120 Japanese adult inpatients with MRSA infections and incorporates creatinine clearance and body weight as covariates, making it applicable to our study population. […] Based on the estimated CLtotal for each patient, the AUC24 was calculated as AUC24 (mg·h/L) = daily maintenance dose (mg)/CLtotal (L/h).[13],[24] Second, to account for the impact of hypoalbuminaemia, a patient-specific unbound fraction (fu) was estimated based on a validated model developed specifically for teicoplanin in a Japanese patient population by Yano et al.[25] The model predicts the fu using the patient’s ALB concentration with the following formula: […]
where ALB is expressed in g/dL.
Finally, the free AUC24 (fAUC24) was estimated by multiplying the total AUC24 by fu. The resulting fAUC24/MICEtest ratio was used for all subsequent PK/PD analyses.
PK parameters for each patient were determined using the TDM software, BMs-Pod (ver 8.06, https://bmspod.web.fc2.com/).[26],[27]

[2] = in vivo; cited from earlier work
Experimental: The estimation of fAUC24 involved a multi-step process. First, the total drug AUC over a 24-h interval during the maintenance phase (AUC24) was calculated for each patient. This was based on individual total clearance (CLtotal) estimated from the observed Cmin through Bayesian analysis. This analysis employed a previously developed population PK (PopPK) model for Japanese patients constructed by Nakayama et al.[23] This PopPK model was based on data from 120 Japanese adult inpatients with MRSA infections and incorporates creatinine clearance and body weight as covariates, making it applicable ...

[3] = tested on: glycopeptide-susceptible Enterococcus faecium (GSEF); assay: Teicoplanin MIC by automated broth microdilution (MicroScan WalkAway-96 Plus); assay type: cell-based; details: all isolates; measurement range 2, 4, 8, 16 mg/L
Experimental: Blood culture specimens were processed using the BACTEC FX system (Becton Dickinson Microbiology Systems, Sparks, MD, USA). Species identification of bacterial isolates recovered from blood cultures was performed using the MALDI Biotyper 1.0 (Bruker Daltonics, Bremen, Germany). Antimicrobial susceptibilities to ampicillin and teicoplanin were tested using the MicroScan WalkAway system (Beckman Coulter Japan, Tokyo, Japan) and interpreted according to the Clinical and Laboratory Standards Institute (M100-S26) breakpoints.[21] Polymicrobial bacteraemia was defined as cases where one or more microorganisms, in addition to E. faecium, were isolated from the same blood culture and were not classified as contaminants according to the CDC criteria.[16]
For this study, teicoplanin MIC determinations were performed on archived isolates using a commercial automated broth microdilution method with the MicroScan WalkAway-96 Plus system (MICWalkAway) (Beckman Coulter) and gradient diffusion method (MICEtest) (Etest, bioMérieux) following the manufacturer’s instructions. […] In cases where disagreement occurred among all three operators, the MIC was retested and determined by the representative operator, taking the initial results into consideration.

GSEF bacteraemia [4] = assay: Clinical outcomes of teicoplanin-treated GSEF bacteraemia (retrospective cohort); assay type: in vivo, human; details: for Treatment failure: 30-day all-cause mortality or microbiological failure
Experimental: We conducted a retrospective, single-centre, observational cohort study at The University of Tokyo Hospital between 1 April 2009 and 30 May 2023. The University of Tokyo’s ethics review board approved the study protocol (approval no. 2023138NI) and waived the requirement for written informed consent. The study was conducted in accordance with the ethical standards of the 1964 Declaration of Helsinki and its subsequent amendments. Patients with at least one GSEF-positive blood culture who received teicoplanin during the study period were deemed eligible. The exclusion criteria were as follows: lack of storage of microbiological samples, lack of teicoplanin trough concentration (Cmin), age under 18 years, renal replacement therapy or initiation of teicoplanin treatment more than 72 h after infection. GSEF bacteraemia was defined as one or more blood cultures positive for E. faecium resistant to ampicillin, and susceptible to teicoplanin and vancomycin, accompanied by signs or symptoms of infection consistent with suspected infection sites, as established in previous studies.[9],[15],[16] Polymicrobial infections were included in the analysis. For patients with a history of multiple treatments for GSEF bacteraemia, only the first treatment was considered.
The primary outcome, treatment failure, was defined as a composite of (i) 30-day all-cause mortality or (ii) microbiological failure, defined as persistent bacteraemia (a positive follow-up blood culture obtained >72 h after initiation of appropriate therapy) in patients with at least one follow-up blood culture).[28],[29] In patients without follow-up blood cultures, microbiological failure was not assessed, and treatment failure was determined solely based on 30-day all-cause mortality. […] Secondary outcomes included 90-day all-cause mortality (death within 90 days of the first positive GSEF blood culture), in-hospital mortality (death occurring during hospitalization), relapse (recurrence of GSEF bacteraemia after negative blood cultures following GSEF treatment) and readmission within 90 days of the first positive GSEF blood culture. Relapse was defined as recurrence of GSEF bacteraemia after documented microbiological clearance, confirmed by at least one negative follow-up blood culture. All clinical outcomes and PK parameter estimation (including AUC calculation) were conducted by an infectious disease pharmacist with access to treatment details and patient clinical courses. MIC measurements were performed independently by separate investigators and were integrated only after clinical outcome evaluation was completed. Safety outcomes included (i) incidence of AKI, diagnosed according to the KDIGO criteria (defined as 1.5× increase in sCr from baseline within 7 days or ≥0.3 mg/dL increase within 48 h of baseline following teicoplanin initiation)[30]; (ii) incidence of liver injury, defined as AST ≥ 90 U/L or ALT ≥ 126 U/L (≥3 times the upper limit during teicoplanin treatment)[31]; and (iii) other adverse events associated with teicoplanin use for GSEF bacteraemia.[15]
Continuous variables, expressed as medians with IQRs, were compared between the treatment success and treatment failure groups using the Mann–Whitney U-test. Categorical variables were compared between the two groups using the χ² test or Fisher’s exact test, as appropriate. To identify predictors of treatment failure, several steps were taken for the logistic regression analysis. First, classification and regression tree (CART) analysis was used to identify the optimal cut-off value for the fAUC24/MICEtest associated with treatment failure, according to the previous vancomycin PK/PD study.[32] This created a dichotomous variable for the PK/PD parameter. Next, a multivariable logistic regression model was constructed to assess the independent effect of the fAUC24/MICEtest on treatment failure. […]

[5] = tested on: glycopeptide-susceptible Enterococcus faecium (GSEF); assay: Teicoplanin MIC by gradient diffusion method (Etest) on archived blood isolates; assay type: cell-based; details: for MICEtest: median (IQR), Etest
Experimental: For this study, teicoplanin MIC determinations were performed on archived isolates using a commercial automated broth microdilution method with the MicroScan WalkAway-96 Plus system (MICWalkAway) (Beckman Coulter) and gradient diffusion method (MICEtest) (Etest, bioMérieux) following the manufacturer’s instructions. Due to a change in the MIC measurement range during the study period, all isolates were remeasured using the MicroScan WalkAway-96 Plus system for consistency. The MICWalkAway measurement range was 2, 4, 8, and 16 mg/L. The MICEtest results were reviewed and confirmed independently by three clinical microbiologists who were blinded to the clinical outcomes of the patients from whom the isolates were obtained. In cases where disagreement occurred among all three operators, the MIC was retested and determined by the representative operator, taking the initial results into consideration.

[6] = cited from earlier work
Source text: The PK/PD parameter most commonly associated with the clinical efficacy of teicoplanin against MRSA is the ratio of the AUC to the MIC, referred to as AUC/MIC.[10],[11] The target AUC/MIC ratio for teicoplanin against MRSA is approximately 600–900, and achieving this target is known to improve therapeutic outcomes.[12],[13] Furthermore, teicoplanin is a highly protein-bound drug (approximately 90%), and it is the unbound (free) fraction that exerts antimicrobial activity. In critically ill patients, conditions such as hypoalbuminaemia can alter protein binding, potentially affecting the free d ...

GSEF bacteraemia [7] = details: cited from earlier work

In the case of teicoplanin, the Cmin ([1]; human, in vivo) is reported as 18.3 (15.0–23.1) mg/L, the “inter-individual variability (CV%) for clearance” value ([1]; human, in vivo) is reported as 39.2% and the “inter-individual variability (CV%) for distribution rate parameter K12” value ([1]; human, in vivo) is reported as 0.1%. For the same substance, the “inter-individual variability (CV%) for distribution rate parameter α” value ([1]; human, in vivo) was 4.7%, the “inter-individual variability (CV%) for steady-state volume of distribution” value ([1]; human, in vivo) was 43.8% and the “median Cmin in both groups” value ([1]; human, in vivo) was “approximately 18 mg/L”. For the same substance, the Cmin ([1]; total trough concentration, maintenance phase, treatment failure group (n = 18), median (IQR)) was 18.4 (9.70–23.1) mg/L, the “inter-individual variability (CV%) for clearance (CL)” value [2] was 22.1% and the “inter-individual variability (CV%) for volume of distribution (V)” value [2] was 26.7%. The residual variability [2] was 15.6%, the MICWalkAway [3] was at most 2 mg/L and the “overall 30-day mortality rate” value (GSEF bacteraemia [4]; 6/76) was 7.9%. The “treatment failure, overall” value (GSEF bacteraemia [4]; 18 of 76 patients) was 23.7%, the 30-day mortality (GSEF bacteraemia [4]; fAUC24/MICEtest < 462 (n = 49)) was 6 (12.2) n (%) and the 90-day mortality (GSEF bacteraemia [4]; fAUC24/MICEtest < 462 (n = 49)) was 17 (34.7) n (%). For the same substance, the In-hospital mortality (GSEF bacteraemia [4]; fAUC24/MICEtest < 462 (n = 49)) was 12 (24.5) n (%), the “Readmission within 90 days after bacteraemia” value (GSEF bacteraemia [4]; fAUC24/MICEtest < 462 (n = 49)) was 22 (44.9) n (%) and the Relapse (GSEF bacteraemia [4]; fAUC24/MICEtest < 462 (n = 49)) was 7 (14.3) n (%). For the same substance, the Treatment failure (GSEF bacteraemia [4]; fAUC24/MICEtest < 462 (n = 49)) was 17 (34.7) n (%), the 30-day mortality (GSEF bacteraemia [4]; fAUC24/MICEtest ≥ 462 (n = 27)) was 0 (0.0) n (%) and the 90-day mortality (GSEF bacteraemia [4]; fAUC24/MICEtest ≥ 462 (n = 27)) was 3 (11.1) n (%). The In-hospital mortality (GSEF bacteraemia [4]; fAUC24/MICEtest ≥ 462 (n = 27)) was 2 (7.4) n (%), the “Readmission within 90 days after bacteraemia” value (GSEF bacteraemia [4]; fAUC24/MICEtest ≥ 462 (n = 27)) was 8 (29.6) n (%) and the Relapse (GSEF bacteraemia [4]; fAUC24/MICEtest ≥ 462 (n = 27)) was 3 (11.1) n (%). For the same substance, the Treatment failure (GSEF bacteraemia [4]; fAUC24/MICEtest ≥ 462 (n = 27)) was 1 (3.7) n (%), the “Odds ratio (95% CI) of treatment failure for fAUC24/MICEtest ≥ 462, multivariable” value (GSEF bacteraemia [4]; logistic regression adjusted for CCI, immunosuppressed state, Pitt bacteraemia score) was 0.099 (0.005–0.562) and the “Odds ratio (95% CI) of treatment failure for fAUC24/MICEtest ≥ 462, univariable” value (GSEF bacteraemia [4]; logistic regression, univariable) was 0.072 (0.004–0.389). For the same substance, the “incidence of treatment failure” value (GSEF bacteraemia [4]; patients with fAUC24/MICEtest < 462) was 34.7%, the “incidence of treatment failure” value (GSEF bacteraemia [4]; patients with fAUC24/MICEtest ≥ 462) was 3.7% and the “proportion of isolates with MIC ≤ 0.5 mg/L” value ([5]; isolates of the cohort) was 84.2%. The MICEtest ([5]; treatment failure group (n = 18)) was 0.50 (0.35–0.50) mg/L, the MICEtest ([5]; treatment success group (n = 58)) was 0.25 (0.13–0.50) mg/L and the protein bound [6] was “approximately 90%”. For the same substance, the effectiveness versus vancomycin (GSEF bacteraemia [7]; GSEF bacteraemia treatment) was “non-inferior to vancomycin”, the “incidence of acute kidney injury (AKI) versus vancomycin” value (GSEF bacteraemia [7]; in vivo) was “significantly lower incidence of acute kidney injury (AKI)” and the treatment success ratio (GSEF bacteraemia [7]; patients with GSEF bacteraemia) was 64.9%.
